Marks after values point to notes of the source that are not given here.
System: C170HM2 human colorectal tumor cells
Assay: Colon cancer metastasis to the liver (orthotopic liver metastasis model)
Format: in vivo, MF1 nude (nu/nu) athymic mice
Procedure: Liver metastasis was initiated by intraperitoneal injection of C170HM2 human colorectal tumor cells into male MF1 nude (nu/nu) athymic mice. 5FU/leucovorin was used as a positive control.
C170HM2 cells were maintained in vitro in RPMI culture medium (Sigma) containing 10% (v/v) heat inactivated fetal bovine serum and 2 mM L-glutamine at 37° C. in 5% CO2 and humidified conditions. Cells from sub-confluent monolayers were harvested with 0.025% EDTA, washed in culture medium and re-suspended in sterile phosphate buffered saline, pH 7.4 (PBS) for in vivo administration. 1.5×10^6 cells in a volume of 1 ml were injected intraperitoneally into 65 mice, and the mice were allocated into treatment groups as below.
Treatment was initiated on day 1 following cell injection and continued until day 35 or until the clinical condition of the animal required termination. One mouse in group 6 was terminated on day 20 due to black tail, bruising, and very pale appearance. Groups and 6 missed one dose on day 5. No adverse affects of the test compounds in mice bearing the tumors were observed.
The study was terminated on day 35, and the tumors in the liver were excised and weighed.

[1] = 25 mg/kg i.v. days 1, 3, 5, 7, calculated in comparison to group 7 (untreated), not group 1
[2] = 25 mg/kg i.v., compared to the untreated control group (group 7)

## 5FU/leucovorin [5 FU/Leu]
25 mg/kg i.v. cycled on days 1, 3, 5, 7, liver tumors day 35
  Mean tumor weight: 0.037 g
[1]
  Mean tumor area (% of vehicle): 15.7 % of vehicle
  Mean tumor weight (% of vehicle): 11.94* % of vehicle
25 mg/kg i.v. days 1, 3, 5, 7, cross-sectional area, day 35
  Mean tumor area (mm^2): 13.12 mm^2
[2]
  decrease in tumor cross-sectional area: 84%
  decrease of tumor weight in the liver: approximately 88%
25 mg/kg i.v., compared to the vehicle control group (group 1), not significant
  decrease in tumor size: 62%
